According to ChEMBL document CHEMBL3621146, “Design of Potent and Orally Active GPR119 Agonists for the Treatment of Type II Diabetes” (ACS Med Chem Lett, 2015):
In brackets after ≈: the same amount, converted by molar mass. Blank lines part the entries; values can stand above or below the molecule they belong to.

Columns and labels:
[1] = Intrinsic clearance in rat liver microsomes; type: ADME; conditions: read-out: CLH
Rattus norvegicus [2] = assay: (§1) Volume of distribution in Wistar Han rat at 0.5 mg/kg, iv LC-MS/MS method; type: ADME, organism-based; conditions: in vivo
[3] = target: T1, Glucose-dependent insulinotropic receptor (Homo sapiens, UniProt Q8TDV5); assay: Agonist activity at human GPR119 expressed in CHO cells by cAMP assay; type: functional, cell-based
T1 sequence (Q8TDV5 whole entry): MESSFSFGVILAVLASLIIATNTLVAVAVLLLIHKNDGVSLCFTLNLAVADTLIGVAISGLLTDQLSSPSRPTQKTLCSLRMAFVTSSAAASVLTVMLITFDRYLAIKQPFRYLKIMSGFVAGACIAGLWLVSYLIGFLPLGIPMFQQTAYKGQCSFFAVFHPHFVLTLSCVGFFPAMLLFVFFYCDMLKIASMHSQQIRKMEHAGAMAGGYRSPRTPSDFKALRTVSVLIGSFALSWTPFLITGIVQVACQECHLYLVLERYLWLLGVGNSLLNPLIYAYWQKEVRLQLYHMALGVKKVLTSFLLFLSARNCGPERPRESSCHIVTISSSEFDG

[4] = Kinetic solubility in FaSSIF at pH 6.5; type: physicochemical; conditions: for solubility kinetic: FaSSIF, read-out: Kinetic_solubility
[5] = Fraction unbound in rat plasma; type: ADME, cell-free
Rattus norvegicus [6] = assay: Unbound volume of distribution in Wistar Han rat at 0.5 mg/kg, iv LC-MS/MS method; type: ADME, organism-based; conditions: in vivo
Rattus norvegicus [7] = assay: (§2) Half life in Wistar Han rat at 0.5 mg/kg, iv LC-MS/MS method; type: ADME, organism-based; conditions: in vivo
[8] = Lipophilicity, logD of the compound at pH 7 by HPLC method; type: physicochemical; conditions: buffer
[9] = target: T2, Glucose-dependent insulinotropic receptor (Homo sapiens) (UniProt Q8TDV5); assay: Agonist activity at human GPR119 by cAMP assay relative to control; type: functional; design: concentration or dose not given beside the values
T2 sequence (whole entry): T1 sequence (Q8TDV5 whole entry)

[10] = target: T3, Glucose-dependent insulinotropic receptor (Mus musculus, UniProt Q7TQP3); assay: Agonist activity at mouse GPR119 by cAMP assay; type: functional
T3 sequence (Q7TQP3 whole entry): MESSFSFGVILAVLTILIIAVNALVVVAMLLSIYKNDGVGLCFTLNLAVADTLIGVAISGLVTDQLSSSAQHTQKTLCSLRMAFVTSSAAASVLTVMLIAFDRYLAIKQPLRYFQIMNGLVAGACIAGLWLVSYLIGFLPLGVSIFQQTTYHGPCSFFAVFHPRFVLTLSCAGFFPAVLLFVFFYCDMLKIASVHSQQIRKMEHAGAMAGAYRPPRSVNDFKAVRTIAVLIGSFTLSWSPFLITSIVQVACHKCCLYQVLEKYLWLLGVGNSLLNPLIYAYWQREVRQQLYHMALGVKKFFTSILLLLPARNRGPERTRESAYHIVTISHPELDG

[11] = target: T4, Glucose-dependent insulinotropic receptor (Mus musculus) (UniProt Q7TQP3); assay: Agonist activity at mouse GPR119 by cAMP assay relative to control; type: functional; design: concentration or dose not given beside the values
T4 sequence (whole entry): T3 sequence (Q7TQP3 whole entry)

[12] = as §2; type: ADME, organism-based; conditions: Wistar Han, in vivo
[13] = Intrinsic clearance in monkey liver microsomes; type: ADME, Macaca mulatta; conditions: rhesus monkey, read-out: CLH
[14] = Solubility in FaSSIF; type: physicochemical; conditions: simulated gi fluid
[15] = Drug level in mouse blood at 10 mg/kg after 90 mins; type: ADME, organism-based; conditions: whole blood, read-out: Drug uptake
[16] = Fraction unbound in dog plasma; type: ADME, cell-free, Canis lupus familiaris
[17] = as §1; type: ADME, organism-based; conditions: Wistar Han, in vivo
[18] = target: T5, Nuclear receptor subfamily 1 group I member 2 (Homo sapiens, UniProt O75469); assay: Activation of human PXR; type: ADME
T5 sequence (O75469 whole entry): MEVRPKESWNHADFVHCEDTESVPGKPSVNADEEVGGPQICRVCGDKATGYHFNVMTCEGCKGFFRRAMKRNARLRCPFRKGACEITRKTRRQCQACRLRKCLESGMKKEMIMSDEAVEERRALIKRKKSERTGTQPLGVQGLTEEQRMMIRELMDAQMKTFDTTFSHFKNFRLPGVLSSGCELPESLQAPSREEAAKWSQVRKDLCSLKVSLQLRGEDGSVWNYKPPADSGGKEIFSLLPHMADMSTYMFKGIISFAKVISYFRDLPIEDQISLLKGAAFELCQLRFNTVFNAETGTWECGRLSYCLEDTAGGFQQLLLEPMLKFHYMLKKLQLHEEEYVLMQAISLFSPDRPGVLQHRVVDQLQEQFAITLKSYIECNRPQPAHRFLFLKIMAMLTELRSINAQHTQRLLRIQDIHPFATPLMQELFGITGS

[19] = Plasma clearance in rhesus monkey; type: ADME, organism-based, Macaca mulatta
Mus musculus [20] = assay: Reduction in blood glucose excursion in po dosed C57BL/6 Tac mouse by OGTT method; type: functional, organism-based
[21] = Fraction unbound in rhesus monkey plasma; type: ADME, cell-free, Macaca mulatta
[22] = Drug level in mouse blood at 3 mg/kg after 90 mins; type: ADME, organism-based; conditions: whole blood, read-out: Drug uptake
[23] = Intrinsic clearance in human liver microsomes; type: ADME; conditions: read-out: CLH
[24] = Plasma clearance in Wistar Han rat at 0.5 mg/kg, iv LC-MS/MS method; type: ADME, organism-based
[25] = Drug level in mouse blood at 0.3 mg/kg after 90 mins; type: ADME, organism-based; conditions: whole blood, read-out: Drug uptake
[26] = Half life in Beagle dog; type: ADME, organism-based, Canis lupus familiaris; conditions: in vivo
[27] = Solubility in PEG400; type: physicochemical
Cavia porcellus = species: Cavia porcellus; assay: Toxicity in guinea pig assessed as effect on cardiovascular parameters at 64 times over target clinical exposure level; type: organism-based, Heart; conditions: in vivo
[28] = Half life in rhesus monkey; type: ADME, organism-based, Macaca mulatta; conditions: in vivo
[29] = Solubility in PEG200; type: physicochemical
[30] = Oral bioavailability in rhesus monkey; type: ADME, organism-based, Macaca mulatta; conditions: in vivo
[31] = Solubility in SGF; type: physicochemical
[32] = Oral bioavailability in Wistar Han rat; type: ADME, organism-based; conditions: in vivo
[33] = Fraction unbound in human plasma; type: ADME, cell-free
[34] = Oral bioavailability in Beagle dog; type: ADME, organism-based, Canis lupus familiaris; conditions: in vivo
[35] = Drug level in mouse blood at 1 mg/kg after 90 mins; type: ADME, organism-based; conditions: whole blood, read-out: Drug uptake
[36] = target: T5, Nuclear receptor subfamily 1 group I member 2; assay: Activation of human PXR relative to control; type: ADME
Mus musculus [37] = assay: Reduction in blood glucose excursion in po dosed C57BL/6 Tac mouse assessed as minimal dose for maximum efficacy by OGTT method; type: functional; conditions: read-out: MED
[38] = Volume of distribution in rhesus monkey; type: ADME, organism-based, Macaca mulatta; conditions: in vivo
Cytochrome P450 3A4 = Cytochrome P450 3A4 (Homo sapiens, UniProt P08684); assay: Inhibition of CYP3A4 (unknown origin)
Cytochrome P450 3A4, sequence (P08684 whole entry): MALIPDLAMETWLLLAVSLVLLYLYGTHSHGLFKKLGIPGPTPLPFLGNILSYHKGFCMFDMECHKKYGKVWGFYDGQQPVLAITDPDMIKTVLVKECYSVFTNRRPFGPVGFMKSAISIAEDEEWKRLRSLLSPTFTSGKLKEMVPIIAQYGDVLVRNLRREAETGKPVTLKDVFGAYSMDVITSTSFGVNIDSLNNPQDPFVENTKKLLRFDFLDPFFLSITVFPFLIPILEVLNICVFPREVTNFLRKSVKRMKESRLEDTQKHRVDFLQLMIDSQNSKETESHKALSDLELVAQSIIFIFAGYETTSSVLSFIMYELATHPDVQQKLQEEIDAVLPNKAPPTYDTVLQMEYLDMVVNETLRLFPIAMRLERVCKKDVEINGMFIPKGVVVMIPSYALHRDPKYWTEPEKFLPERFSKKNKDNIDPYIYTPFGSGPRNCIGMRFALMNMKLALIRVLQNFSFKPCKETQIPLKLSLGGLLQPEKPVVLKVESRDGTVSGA

[39] = Intrinsic clearance in dog liver microsomes; type: ADME, Canis lupus familiaris; conditions: read-out: CLH
[40] = Plasma clearance in Beagle dog; type: ADME, organism-based, Canis lupus familiaris
[41] = Volume of distribution in Beagle dog; type: ADME, organism-based, Canis lupus familiaris; conditions: in vivo

SMILES: COc1cnc(N2CCC([C@H]3C[C@H]3COCc3ccc(S(C)(=O)=O)cc3F)CC2)nc1
EC50 [10]: 1.4 nM
EC50 [3]: 4.5 nM
Activity [11]: 85%
solubility kinetic [4]: 151 µM (≈ 67.9 µg/mL)
half-life [12]: 0.6 h
logD [8]: 4
Activity [9]: 79%

SMILES: COCc1cnc(N2CCC([C@H]3C[C@H]3COCc3ccc(S(C)(=O)=O)cc3F)CC2)nc1
CLint scaled [13]: 319 mL/min/kg
solubility [14]: 56 µg/mL (≈ 121 µM)
concentration at 1.5 h [15]: 622 nM
EC50 [10]: 1.9 nM
fraction unbound [16]: 0.055
CLint scaled [1]: 1100 mL/min/kg
Vd [17]: 2.2 L/kg
EC50 [18]: > 30000 nM
EC50 [3]: 2.1 nM
clearance [19]: 16 mL/min/kg
Activity (Mus musculus [20]): Dose-dependent effect
Activity [11]: 97%
solubility kinetic [4]: 161 µM (≈ 74.6 µg/mL)
fraction unbound [21]: 0.032
concentration at 1.5 h [22]: 302 nM
CLint scaled [23]: 42 mL/min/kg
clearance [24]: 41 mL/min/kg
fraction unbound [5]: 0.041
concentration at 1.5 h [25]: 18 nM
half-life [26]: 17 h
Vdu (Rattus norvegicus [6]): 54 L/kg
solubility [27]: 325000 µg/mL (≈ 701000 µM)
half-life [12]: 1 h
logD [8]: 3.5
Activity (Cavia porcellus): Non-toxic
half-life [28]: 2.3 h
solubility [29]: 129000 µg/mL (≈ 278000 µM)
bioavailability [30]: 5%
solubility [31]: 870 µg/mL (≈ 1880 µM)
bioavailability [32]: 27%
fraction unbound [33]: 0.049
bioavailability [34]: 60%
concentration at 1.5 h [35]: 86 nM
Activity [9]: 88%
Activity [36]: 39%
minimal effective dose (Mus musculus [37]): 3 mg/kg
Vd [38]: 2 L/kg
IC50 (Cytochrome P450 3A4): 40000 nM
CLint scaled [39]: 60 mL/min/kg
clearance [40]: 6 mL/min/kg
Vd [41]: 6.5 L/kg

SMILES: CCOc1cnc(N2CCC([C@H]3C[C@H]3COCc3ccc(S(C)(=O)=O)c(F)c3)CC2)nc1
EC50 [10]: 2.3 nM
EC50 [3]: 1.7 nM
Activity [11]: 96%
solubility kinetic [4]: 101 µM (≈ 46.8 µg/mL)
half-life [12]: 0.8 h
logD [8]: 4.2
Activity [9]: 75%

SMILES: COC(C)c1cnc(N2CCC([C@H]3C[C@H]3COCc3ccc(S(C)(=O)=O)cc3F)CC2)nc1 (stereo in doubt; 30)
EC50 [10]: 3.3 nM
EC50 [3]: 4.6 nM
solubility kinetic [4]: 137 µM (≈ 65.4 µg/mL)
t1/2 (Rattus norvegicus [7]): 1 h
logD [8]: 3.9

SMILES: CS(=O)(=O)c1ccc(COC[C@@H]2C[C@@H]2C2CCN(c3ncc(F)cn3)CC2)cc1F
EC50 [10]: 4.5 nM
EC50 [3]: 2.4 nM
Activity [11]: 131%
solubility kinetic [4]: 92 µM (≈ 40.3 µg/mL)
half-life [12]: 1.5 h
logD [8]: 4.2
Activity [9]: 85%

SMILES: CCS(=O)(=O)c1ccc(COC[C@@H]2C[C@@H]2C2CCN(c3ncc(COC)cn3)CC2)c(F)c1
EC50 [10]: 12.5 nM
EC50 [3]: 7.1 nM
Activity [11]: 87%
solubility kinetic [4]: 129 µM (≈ 61.6 µg/mL)
half-life [12]: 2.1 h
logD [8]: 3.8
Activity [9]: 58%

SMILES: COC(C)c1cnc(N2CCC([C@H]3C[C@H]3COCc3ccc(S(C)(=O)=O)cc3F)CC2)nc1 (stereo in doubt; 29)
EC50 [10]: 8.9 nM
EC50 [3]: 3.1 nM
Kinetic_solubility ([4]; simulated gi fluid): 143 µM
half-life [12]: 1.4 h

Continued by falling EC50 [3], values first:

EC50 [10]: 3.7 nM
EC50 [3]: 3.2 nM
Activity [11]: 99%
solubility kinetic [4]: 172 µM (≈ 88.2 µg/mL)
half-life [12]: 0.4 h
logD [8]: 3.4
Activity [9]: 104%
SMILES: COCc1cnc(N2CCC([C@H]3C[C@H]3COCc3ccc(CC(=O)N4CCOCC4)cc3F)CC2)nc1

EC50 [10]: 4.8 nM
EC50 [3]: 1.7 nM
Activity [11]: 105%
solubility kinetic [4]: 103 µM (≈ 45.5 µg/mL)
half-life [12]: 1.4 h
logD [8]: 3.9
Activity [9]: 129%
SMILES: CC(C)c1noc(N2CCC([C@H]3C[C@H]3COCc3ccc(-n4cnnn4)cc3F)CC2)n1

EC50 [10]: 3.8 nM
EC50 [3]: 1.1 nM
Activity [11]: 75%
solubility kinetic [4]: 133 µM (≈ 60.3 µg/mL)
half-life [12]: 3 h
logD [8]: 3.7
Activity [9]: 84%
SMILES: COCc1cnc(N2CCC([C@H]3C[C@H]3COCc3ccc(-n4cnnn4)c(F)c3)CC2)nc1

CLint scaled [1]: 905 mL/min/kg
Vd (Rattus norvegicus [2]): 4.8 L/kg
EC50 [3]: 0.8 nM
solubility kinetic [4]: 127 µM (≈ 59.1 µg/mL)
fraction unbound [5]: 0.058
Vdu (Rattus norvegicus [6]): 62 L/kg
t1/2 (Rattus norvegicus [7]): 1.5 h
logD [8]: 4
Activity [9]: 71%
SMILES: CCS(=O)(=O)c1ccc(COC[C@@H]2C[C@@H]2C2CCN(c3nc(C(C)C)no3)CC2)c(F)c1
